Data: ChEMBL document CHEMBL1141249, “Lucentamycins A-D, cytotoxic peptides from the marine-derived actinomycete Nocardiopsis lucentensis” (J Nat Prod, 2007)
The source made the active and inactive calls. The calls are words filed in the database; no cut-off is given here.

Columns and labels:
HCT-116 [1] = experiment: Cytotoxicity against human HCT116 cells by MTS assay; format: functional, cell-based
HCT-116 [2] = experiment: Cytotoxicity against human HCT116 cells upto 150 uM by MTS assay; format: functional, cell-based

Question: How did the IC50 (HCT-116 [1]) turn out when `C/C=C1/CN(C(=O)[C@H](CCCCNC(=N)N)NC(=O)CC(C)C)[C@H](C(=O)N[C@@H](Cc2c[nH]c3ccccc23)C(=O)O)[C@@H]1C` [LUCENTAMYCIN B] was run?
Answer: The IC50 was 11 µM.

Question: How did the IC50 (HCT-116 [1]) turn out when `C/C=C1\CN(C(=O)[C@H](CCCCNC(=N)N)NC(=O)c2ccccc2)[C@H](C(=O)N[C@@H](CC(C)C)C(=O)O)[C@@H]1C` [LUCENTAMYCIN A] was run?
Answer: The IC50 was 0.2 µM.

Question: How did the Activity (HCT-116 [2]) turn out when `C/C=C1\CN(C(=O)[C@H](CCCCNC(=N)N)NC(=O)C=C(C)C)[C@H](C(=O)N[C@@H](CC(C)C)C(=O)O)[C@@H]1C` was run?
Answer: Its Activity is “inactive”.

Question: `C/C=C1\CN(C(=O)[C@H](CCCCNC(=N)N)NC(=O)CC(C)C)[C@H](C(=O)N[C@@H](CC(C)C)C(=O)O)[C@@H]1C` was tested. Which Activity (HCT-116 [2]) did it give?
Answer: Its Activity is “inactive”.
